Where two headings read alike, the source gives them in different places.

The results in this text go back to US8680159B2, “Bradykinin 1 receptor modulating compounds” (Gruenenthal GmbH, priority 2010, dated 2014).

Experiment [1] has as its target T1, human B1R receptor (CHO K1 cells stably transfected with the human B1R gene) (Homo sapiens, UniProt P46663).
T1 construct: expressed in transfected cells; host or cells: CHO K1 cells (Chinese hamster ovary), stably transfected
T1 sequence (P46663 1-353): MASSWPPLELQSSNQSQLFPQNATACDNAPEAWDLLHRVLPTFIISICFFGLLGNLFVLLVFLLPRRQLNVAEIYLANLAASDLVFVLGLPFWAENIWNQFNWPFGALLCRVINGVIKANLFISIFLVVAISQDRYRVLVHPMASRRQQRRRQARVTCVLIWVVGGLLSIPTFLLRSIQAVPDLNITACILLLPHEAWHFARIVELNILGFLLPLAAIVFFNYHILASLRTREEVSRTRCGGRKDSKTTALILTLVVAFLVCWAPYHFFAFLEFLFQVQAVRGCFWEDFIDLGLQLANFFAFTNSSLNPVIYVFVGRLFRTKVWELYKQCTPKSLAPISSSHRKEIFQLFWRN
In words: Functional study on the bradykinin receptor 1 (B1R), Ca2+ fluorescence (Fluo-4) FLIPR/Novostar assay, hB1R cells. It counts as cell-based. In short, it runs like this: (§1)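 Stably transfected CHO K1 cells carrying human or rat B1R were Fluo-4 loaded and Ca2+ fluorescence read by FLIPR or Novostar. Compounds were added first at 10 μM for % activation, then the EC80 agonist was applied after 6-20 min (human: Lys-Des-Arg9-bradykinin; rat: Des-Arg9-bradykinin). % inhibition is relative to maximum achievable inhibition, and IC50 comes from concentration series.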

Experiment [2] addresses T2, B1R receptor of the rat (CHO K1 cells stably transfected with the B1R gene of the rat) (Rattus norvegicus, UniProt P97583).
T2 construct: expressed in transfected cells; host or cells: CHO K1 cells (Chinese hamster ovary), stably transfected
T2 sequence (P97583 1-337): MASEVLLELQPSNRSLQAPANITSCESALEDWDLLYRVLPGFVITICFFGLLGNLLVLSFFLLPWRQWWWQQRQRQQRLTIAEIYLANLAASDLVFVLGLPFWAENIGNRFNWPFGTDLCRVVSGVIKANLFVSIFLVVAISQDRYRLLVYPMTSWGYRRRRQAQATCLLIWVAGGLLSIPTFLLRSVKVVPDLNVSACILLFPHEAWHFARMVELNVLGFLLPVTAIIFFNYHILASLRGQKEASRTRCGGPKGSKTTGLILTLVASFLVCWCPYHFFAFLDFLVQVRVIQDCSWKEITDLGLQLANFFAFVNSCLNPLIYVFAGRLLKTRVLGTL
The experiment is described as follows: Functional study on the bradykinin receptor 1 (B1R), Ca2+ fluorescence (Fluo-4) FLIPR/Novostar assay, rB1R cells. In kind it is cell-based. The settings on record: for inhibition at 10 µM: CHO-K1, 10 μM. In short, it runs like this:
as §1

Setting [3] is: CHO-K1, read-out: % inhibition (human B1R) at 10 μM.
Where [4] appears, read: read-out: % inhibition (rat B1R) at 10 μM.
Where [5] appears, read: CHO-K1, read-out: % Inhibition (h-B1R) at 10 μM.
Where [6] appears, read: read-out: % Inhibition (r-B1R) at 10 μM.

Take `CN(C(=O)c1ccc2c(c1)CC[C@H]2N1Cc2cccc(Cl)c2C1=O)C1CCN(Cc2ccncc2)CC1` [Example H-27, (1R)-1-(4-Chloro-3-oxo-1,2-dihydro-isoindol-2-yl)-N-methyl-N-[1-(pyridin-4-yl-methyl)-piperidin-4-yl]-2,3-dihydro-1H-indene-5-carboxylic acid amide]: the inhibition at 10 µM in experiment [1] (setting [3]) is 74%; in experiment [2] (setting [4]) it was 11%.
For `CN(C(=O)c1ccc2c(c1)CC[C@H]2NC(=O)c1ccccc1Cl)C1CCN(c2ccncc2)CC1` [Example H-17, (1R)-1-[(2-Chloro-benzoyl)amino]-N-methyl-N-(1-pyridin-4-yl-piperidin-4-yl)-2,3-dihydro-1H-indene-5-carboxylic acid amide], in that order: 100% and 77%.
Regarding `O=C(NCCC1CCN(c2ccncc2)CC1)c1ccc2c(c1)[C@H](NC(=O)c1ccccc1Cl)CC2` [Example H-15, (3R)-3-[(2-Chloro-benzoyl)amino]-N-[2-(1-pyridin-4-yl-piperidin-4-yl)-ethyl]-2,3-dihydro-1H-indene-5-carboxylic acid amide], the inhibition at 10 µM amounted to 100% in experiment [1] (setting [3]) and 99% in experiment [2] (setting [4]).
Take `Cc1cc(N2CCC(N(C)C(=O)c3ccc4c(c3)[C@H](NC(=O)C3CCOCC3)CC4)CC2)ccn1` [Example H-88, N-[(1R)-6-[Methyl-[1-(2-methyl-pyridin-4-yl)-piperidin-4-yl]-carbamoyl]-2,3-dihydro-1H-inden-1-yl]-tetrahydro-pyran-4-carboxylic acid amide]: the inhibition at 10 µM in experiment [1] (setting [3]) worked out at 96%; in experiment [2] (setting [4]), 104%.
In the case of `CN(C(=O)c1ccc2c(c1)C(N(C)C(=O)c1cncnc1)CC2)C1CCN(c2ccncc2)CC1` (stereo not shown) [CC_H-45, N-Methyl-N-[6-[methyl-(1-pyridin-4-yl-piperidin-4-yl)-carbamoyl]-2,3-dihydro-1H-inden-1-yl]-pyrimidine-5-carboxylic acid amide], the inhibition at 10 µM in experiment [1] (setting [5]) worked out at 96%; in experiment [2] (setting [6]) it was 88%.
Regarding `CN(C(=O)c1ccc2c(c1)C(N(C)C(=O)C1CCCCC1)CC2)C1CCN(c2ccncc2)CC1` (stereo not shown) [CC_H-69, 3-(Cyclohexanecarbonyl-methyl-amino)-N-methyl-N-(1-pyridin-4-yl-piperidin-4-yl)-2,3-dihydro-1H-indene-5-carboxylic acid amide], in experiment [1] (setting [5]), the inhibition at 10 µM is 99%. Moreover, the “% Inhibition (r-B1R) at 10 μM” value in experiment [2] was found to be 104%.
Regarding `CN(C(=O)c1ccc2c(c1)OCC[C@H]2N1Cc2cccc(Cl)c2C1=O)C1CCN(c2ccncc2)CC1` [Example H-45, (4R)-4-(4-Chloro-3-oxo-1,2-dihydro-isoindol-2-yl)-N-methyl-N-(1-pyridin-4-yl-piperidin-4-yl)-3,4-dihydro-2H-chromene-7-carboxylic acid amide], the results for the inhibition at 10 µM in experiment [1] (setting [3]) and in experiment [2] (setting [4]) were 98% and 56%, respectively.
For `Cc1cc(N2CC(N(C)C(=O)c3ccc4c(c3)[C@H](NC(=O)c3ccccc3Cl)CC4)C2)ccn1` [Example H-160, (3R)-3-[(2-Chloro-benzoyl)amino]-N-methyl-N-[1-(2-methyl-pyridin-4-yl)-azetidin-3-yl]-2,3-dihydro-1H-indene-5-carboxylic acid amide], in that order: 100% and 109%.
Consider `CN(C(=O)c1ccc2c(c1)C(NC(=O)c1cncnc1)CCC2)C1CCN(c2ccncc2)CC1` (stereo not shown) [CC_H-08, N-[7-[Methyl-(1-pyridin-4-yl-piperidin-4-yl)-carbamoyl]-1,2,3,4-tetrahydro-naphthalen-1-yl]-pyrimidine-5-carboxylic acid amide], for which the results for the inhibition at 10 µM in experiment [1] (setting [5]) and in experiment [2] (setting [6]) were 99% and 104%, respectively.
In the case of `CN(C)c1cc(C2CCC(N(C)C(=O)c3ccc4c(c3)[C@H](NC(=O)c3ccccc3Cl)CC4)CC2)ccn1` (stereo partly drawn) [Example H-184, (3R)-3-[(2-Chloro-benzoyl)amino]-N-[4-(2-dimethylamino-pyridin-4-yl)-cyclohexyl]-N-methyl-2,3-dihydro-1H-indene-5-carboxylic acid amide], the inhibition at 10 µM in experiment [1] (setting [3]) was found to be 72%; in experiment [2] (setting [4]), 105%.
As for `CN(C(=O)c1ccc2c(c1)C(NC(=O)c1cc(F)ccc1Cl)CCO2)C1CCN(c2ccncc2)CC1` (stereo not shown) [CC_H-63, 4-[(2-Chloro-5-fluoro-benzoyl)amino]-N-methyl-N-(1-pyridin-4-yl-piperidin-4-yl)-3,4-dihydro-2H-chromene-6-carboxylic acid amide], the inhibition at 10 µM in experiment [1] (setting [5]) worked out at 99%; in experiment [2] (setting [6]) it was 103%.
For the compound `CN(C(=O)c1ccc2c(c1)[C@H](NC(=O)c1ccccc1C(C)(C)C)CC2)C1CCN(c2ccncc2)CC1` [Example H-67, (3R)-3-[(2-tert-Butyl-benzoyl)amino]-N-methyl-N-(1-pyridin-4-yl-piperidin-4-yl)-2,3-dihydro-1H-indene-5-carboxylic acid amide], the values for the inhibition at 10 µM in experiment [1] (setting [3]) and in experiment [2] (setting [4]) were 100% and 102%, respectively.
`Cc1cc(N2CCC(N(C)C(=O)c3ccc4c(c3)[C@H](NC(=O)CC(C)C)CC4)CC2)nc(C)n1` [Example H-86, (3R)-N-[1-(2,6-Dimethyl-pyrimidin-4-yl)-piperidin-4-yl]-N-methyl-3-(3-methyl-butanoylamino)-2,3-dihydro-1H-indene-5-carboxylic acid amide]: the figures for the inhibition at 10 µM in experiment [1] (setting [3]) and in experiment [2] (setting [4]) were 100% and 98%, respectively.
For `Cc1cc(N2CCC(N(C)C(=O)c3ccc4c(c3)[C@H](NC(=O)c3cccc(C(F)(F)F)c3Cl)CC4)CC2)nc(C)n1` [Example H-135, (3R)-3-[[2-Chloro-3-(trifluoromethyl)-benzoyl]amino]-N-[1-(2,6-dimethyl-pyrimidin-4-yl)-piperidin-4-yl]-N-methyl-2,3-dihydro-1H-indene-5-carboxylic acid amide], in that order: 99% and 106%.
For the compound `CN(C(=O)NC1CCOc2ccc(C(=O)N(C)C3CCN(c4ccncc4)CC3)cc21)c1ccccc1Cl` (stereo not shown) [CC_H-57, 4-[[(2-Chlorophenyl)-methyl-carbamoyl]amino]-N-methyl-N-(1-pyridin-4-yl-piperidin-4-yl)-3,4-dihydro-2H-chromene-6-carboxylic acid amide], in experiment [1] (setting [5]), the inhibition at 10 µM is 100%. In addition, in experiment [2], the “% Inhibition (r-B1R) at 10 μM” value came out at 101%.
`CN(C(=O)c1ccc2c(c1)C(NC(=O)CCC1CCCC1)CC2(C)C)C1CCN(c2ccncc2)CC1` (stereo not shown) [CC_H-18, 3-(3-Cyclopentyl-propanoylamino)-N,1,1-trimethyl-N-(1-pyridin-4-yl-piperidin-4-yl)-2,3-dihydro-indene-5-carboxylic acid amide]: the values for the inhibition at 10 µM in experiment [1] (setting [5]) and in experiment [2] (setting [6]) were 99% and 102%, respectively.
As for `CN(C(=O)c1ccc2c(c1)CC[C@H]2N1Cc2cccc(Cl)c2C1=O)C1CCN(c2ccccn2)CC1` [Example H-26, (1R)-1-(4-Chloro-3-oxo-1,2-dihydro-isoindol-2-yl)-N-methyl-N-(1-pyridin-2-yl-piperidin-4-yl)-2,3-dihydro-1H-indene-5-carboxylic acid amide], the results for the inhibition at 10 µM in experiment [1] (setting [3]) and in experiment [2] (setting [4]) were 52% and 0%, respectively.
On the same counts, the results for `CN(C(=O)c1ccc2c(c1)[C@@H](NC(=O)c1ccccc1Cl)CC2)C1CCN(c2ccncc2)CC1` [Example H-21, (3S)-3-[(2-Chloro-benzoyl)amino]-N-methyl-N-(1-pyridin-4-yl-piperidin-4-yl)-2,3-dihydro-1H-indene-5-carboxylic acid amide] are 99% and 105%.
On the same counts, the results for `CN(C)c1cc(N2CCC(N(C)C(=O)c3ccc4c(c3)[C@H](NC(=O)c3ccccc3Cl)CC4)CC2)ccn1` [Example H-100, (3R)-3-[(2-Chloro-benzoyl)amino]-N-[1-(2-dimethylamino-pyridin-4-yl)-piperidin-4-yl]-N-methyl-2,3-dihydro-1H-indene-5-carboxylic acid amide] are 100% and 103%.
For `CN(C(=O)c1ccc2c(c1)C(NC(=O)c1ccccc1Cl)CCO2)C1CCN(c2ccncc2)CC1` (stereo not shown) [CC_H-33, 4-[(2-Chloro-benzoyl)amino]-N-methyl-N-(1-pyridin-4-yl-piperidin-4-yl)-3,4-dihydro-2H-chromene-6-carboxylic acid amide], the inhibition at 10 µM in experiment [1] (setting [5]) was found to be 98%; in experiment [2] (setting [6]), 104%.

What is called inhibition is the relative decrease from the control value, in per cent.
